Measurements taken from the NIST ThermoML archive (doi:10.1016/j.jct.2006.03.018).

Experiments:
[1] = refractive index (Na D-line) (dimensionless); xn = mol fraction of the nth substance listed; details: 101 kPa, Liquid
[2] = xn = mol fraction of the nth substance listed; details: 101 kPa, Liquid

COc1ccccc1 [anisole] + CC(C)CCO
x1 = 1
Details | mass density, 298.15 K [kg/m3] | mass density, 303.15 K [kg/m3] | mass density, 308.15 K [kg/m3] | refractive index, 298.15 K | refractive index, 303.15 K | refractive index, 308.15 K | speed of sound, 298.15 K [m/s] | viscosity, 298.15 K [mPa·s] | viscosity, 303.15 K [mPa·s] | viscosity, 308.15 K [mPa·s]
[1] | – | – | – | 1.5137 | 1.5113 | 1.5088 | – | – | – | –
[2] | 989.15 | 984.45 | 979.73 | – | – | – | 1412 | 0.988 | 0.913 | 0.854

CCCCCO [pentan-1-ol] + COc1ccccc1
x2 = 0
Details | mass density, 298.15 K [kg/m3] | mass density, 303.15 K [kg/m3] | mass density, 308.15 K [kg/m3] | refractive index, 298.15 K | refractive index, 303.15 K | refractive index, 308.15 K | speed of sound, 298.15 K [m/s] | viscosity, 298.15 K [mPa·s] | viscosity, 303.15 K [mPa·s] | viscosity, 308.15 K [mPa·s]
[1] | – | – | – | 1.4073 | 1.405 | 1.4032 | – | – | – | –
[2] | 810.92 | 807.23 | 803.52 | – | – | – | 1286 | 3.403 | 2.959 | 2.581

COc1ccccc1 [anisole] + CC(C)O
Details | mass density, 298.15 K [kg/m3] | mass density, 303.15 K [kg/m3] | mass density, 308.15 K [kg/m3] | refractive index, 298.15 K | refractive index, 303.15 K | refractive index, 308.15 K | speed of sound, 298.15 K [m/s] | viscosity, 298.15 K [mPa·s] | viscosity, 303.15 K [mPa·s] | viscosity, 308.15 K [mPa·s]
[1], x1 = 0.0964 | – | – | – | 1.3925 | 1.3901 | 1.3879 | – | – | – | –
[1], x1 = 0.1995 | – | – | – | 1.4115 | 1.4075 | 1.4064 | – | – | – | –
[1], x1 = 0.2995 | – | – | – | 1.4275 | 1.4244 | 1.4226 | – | – | – | –
[1], x1 = 0.3965 | – | – | – | 1.4427 | 1.4399 | 1.438 | – | – | – | –
[1], x1 = 0.4947 | – | – | – | 1.4571 | 1.4535 | 1.451 | – | – | – | –
[1], x1 = 0.5932 | – | – | – | 1.4701 | 1.467 | 1.465 | – | – | – | –
[1], x1 = 0.6966 | – | – | – | 1.482 | 1.4793 | 1.4763 | – | – | – | –
[1], x1 = 0.8069 | – | – | – | 1.495 | 1.4923 | 1.4884 | – | – | – | –
[1], x1 = 0.9052 | – | – | – | 1.5049 | 1.5018 | 1.4999 | – | – | – | –
[1], x1 = 1 | – | – | – | 1.5137 | 1.5113 | 1.5088 | – | – | – | –
[2], x1 = 0.0964 | 809.04 | 804.55 | 799.99 | – | – | – | 1168 | 1.526 | 1.335 | 1.178
[2], x1 = 0.1995 | 836.66 | 832.04 | 827.34 | – | – | – | 1195 | 1.236 | 1.101 | 0.988
[2], x1 = 0.2995 | 861.3 | 856.56 | 851.78 | – | – | – | 1223 | 1.111 | 1 | 0.906
[2], x1 = 0.3965 | 882.77 | 877.97 | 873.12 | – | – | – | 1250 | 1.019 | 0.923 | 0.838
[2], x1 = 0.4947 | 903.09 | 898.25 | 893.38 | – | – | – | 1277 | 0.959 | 0.872 | 0.798
[2], x1 = 0.5932 | 921.89 | 917.04 | 912.14 | – | – | – | 1304 | 0.942 | 0.864 | 0.792
[2], x1 = 0.6966 | 940.52 | 935.67 | 930.78 | – | – | – | 1331 | 0.91 | 0.837 | 0.775
[2], x1 = 0.8069 | 958.9 | 954.07 | 949.22 | – | – | – | 1358 | 0.879 | 0.81 | 0.742
[2], x1 = 0.9052 | 974.58 | 969.52 | 965.01 | – | – | – | 1384 | 0.847 | 0.783 | 0.72
[2], x1 = 1 | 989.15 | 984.45 | 979.73 | – | – | – | 1412 | 0.988 | 0.913 | 0.854

CC(C)O [propan-2-ol] + COc1ccccc1
x2 = 0
Details | mass density, 298.15 K [kg/m3] | mass density, 303.15 K [kg/m3] | mass density, 308.15 K [kg/m3] | refractive index, 298.15 K | refractive index, 303.15 K | refractive index, 308.15 K | speed of sound, 298.15 K [m/s] | viscosity, 298.15 K [mPa·s] | viscosity, 303.15 K [mPa·s] | viscosity, 308.15 K [mPa·s]
[1] | – | – | – | 1.3745 | 1.3721 | 1.3702 | – | – | – | –
[2] | 781.36 | 777.09 | 772.75 | – | – | – | 1141 | 2.042 | 1.755 | 1.521

CCCO [propan-1-ol] + COc1ccccc1
x2 = 0
Details | mass density, 298.15 K [kg/m3] | mass density, 303.15 K [kg/m3] | mass density, 308.15 K [kg/m3] | refractive index, 298.15 K | refractive index, 303.15 K | refractive index, 308.15 K | speed of sound, 298.15 K [m/s] | viscosity, 298.15 K [mPa·s] | viscosity, 303.15 K [mPa·s] | viscosity, 308.15 K [mPa·s]
[1] | – | – | – | 1.3826 | 1.3808 | 1.3782 | – | – | – | –
[2] | 799.96 | 795.93 | 791.86 | – | – | – | 1206 | 1.792 | 1.706 | 1.518
